Laboratory results from patent US10265329B2, “Altering steroid metabolism for treatment of steroid-dependent disease” (THE CLEVELAND CLINIC FOUNDATION, priority 2015, dated 2019).
Like-named read-outs stand apart in the source and are kept apart here.

Tests used:
[1] = target: T1, SRD5A (Homo sapiens, UniProt P18405); assay: Conversion of [3H]-AD to 5α-reduced androgens in LAPC4 cells; format: cell-based
T1 construct: endogenous in cells; host or cells: LAPC4
T1 sequence (P18405 1-259): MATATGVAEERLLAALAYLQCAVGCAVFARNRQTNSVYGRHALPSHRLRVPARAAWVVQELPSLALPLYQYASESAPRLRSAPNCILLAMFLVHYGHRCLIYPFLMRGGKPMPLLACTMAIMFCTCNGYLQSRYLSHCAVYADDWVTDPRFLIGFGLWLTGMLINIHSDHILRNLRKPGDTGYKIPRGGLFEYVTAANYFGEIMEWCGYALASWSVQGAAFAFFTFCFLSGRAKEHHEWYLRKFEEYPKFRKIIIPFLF
Method: (§1) Cell Line Metabolism: Cells were seeded and incubated in 12-well plates with 0.2 million cells/well for ˜24 h and then incubated with a mixture of radioactive ([^3H]-labeled) and non-radioactive androgens (final concentration, 100 nM; ˜1,000,000 cpm/well; PerkinElmer, Waltham, Mass.) at 37° C. Aliquots of medium were collected at the indicated times. Collected medium was treated with 1,000 units of β-glucuronidase (Helix pomatia; Sigma-Aldrich) at 65° C. for 2 h, extracted with 860 μL ethyl acetate:isooctane (1:1), and concentrated under nitrogen gas. Xenograft Metabolism: 10^7 LNCaP or VCaP cells were injected subcutaneously with Matrigel into surgically orchiectomized NSG mice that were implanted with 5 mg 90-day sustained-release DHEA pellets (Innovative Research of American, Sarasota, Fla.). Xenografts were harvested when they reached 1000 mm^3, minced, and cultured in DMEM with 10% FBS at 37° C. with mixture of radioactive ([^3H]-labeled) and non-radioactive androgens, or Abi, when they reached 1000 mm^3. Each xenograft was analyzed in triplicate in at least three independent experiments. Aliquots of medium were collected at the indicated times. Collected medium was treated with 1,000 units of β-glucuronidase at 65° C. for 2 h, extracted with 860 μL ethyl acetate:isooctane (1:1), and concentrated under nitrogen gas.
Dried samples were reconstituted in 50% methanol and injected into the HPLC. Steroids and drug metabolites were separated on Kinetex 100×2.1 mm, 2.6 μm particle size C18 reverse-phase column (Phenomenex, Torrance, Calif.) using a methanol/water gradient at 30° C. […] Alternatively, dried samples were applied to plastic-backed silica gel plates and separated by thin-layer chromatography (TLC) using a mobile phase of 3:1 chloroform:ethyl acetate, followed by exposure of the plates to a phosphorimager screen and quantitated with a Storm model 860 phosphorimager (Applied Biosystems, Foster City, Calif.). […] Results are shown as mean±SD.
Collected medium was treated with β-glucuronidase (Helix pomatia; Sigma-Aldrich), extracted with ethyl acetate:isooctane (1:1), and concentrated under nitrogen gas as described. Li et al., 523, 347-351 (2015).
Dried samples were reconstituted in 50% methanol and separated on Kinetex 100×2.1 mm, 2.6 μm particle size C18 reverse-phase column (Phenomenex, Torrance, Calif.) using a methanol/water gradient at 30° C. […] Results are shown as mean±SD.

[2] = target: T2, CYP17A1 (Homo sapiens, UniProt P05093); assay: Conversion of [3H]-pregnenolone to DHEA in 293 cells expressing CYP17A1; format: cell-based; settings: for CYP17A1 inhibition activity relative to Abi and D4A: 293 cells overexpressing CYP17A1, [3H]-pregnenolone to DHEA
T2 construct: expressed in transfected cells
T2 sequence (P05093 1-508): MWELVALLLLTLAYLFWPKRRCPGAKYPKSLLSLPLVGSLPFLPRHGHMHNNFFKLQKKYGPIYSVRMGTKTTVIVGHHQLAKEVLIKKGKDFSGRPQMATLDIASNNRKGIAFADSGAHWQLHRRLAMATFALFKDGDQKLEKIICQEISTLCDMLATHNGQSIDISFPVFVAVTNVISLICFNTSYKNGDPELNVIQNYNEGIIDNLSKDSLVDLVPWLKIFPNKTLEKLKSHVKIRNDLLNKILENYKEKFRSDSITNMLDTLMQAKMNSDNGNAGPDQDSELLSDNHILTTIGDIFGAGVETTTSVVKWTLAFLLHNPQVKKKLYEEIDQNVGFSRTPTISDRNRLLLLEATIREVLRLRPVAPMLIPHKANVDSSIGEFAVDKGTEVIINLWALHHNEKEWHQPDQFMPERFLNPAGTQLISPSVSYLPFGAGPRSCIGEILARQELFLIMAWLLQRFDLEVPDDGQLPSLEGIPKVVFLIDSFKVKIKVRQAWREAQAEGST
From the text: LNCaP and VCaP cells were purchased from the American Type Culture Collection (Manassas, Va.) and maintained in RPMI-1640 with 10% FBS. LAPC4 cells were kindly provided by Dr. Charles Sawyers (Memorial Sloan Kettering Cancer Center, New York, N.Y.) and grown in Iscove's Modified Dulbecco's Medium with 10% FBS. C4-2 cells were kindly provided by Dr. Leland Chung (Cedars-Sinai Medical Center, Los Angeles, Calif.) and maintained in RPMI-1640 with 10% FBS. All experiments done with LNCaP and VCaP were done in plates coated with poly-DL-ornithine (Sigma-Aldrich, St. Louis, Mo.). A 293 cell line stably expressing human CYP17A1 was generated by transfection with plasmid pcDNA3-CYP17 (a generous gift of Dr. Walter Miller, University of California, San Francisco) and selection with G418. Cell lines was authenticated by DDC Medical (Fairfield, Ohio) and determined to be […] mycoplasma free with primers.
as §1, with “Collected medium was treated with 1,000 units of β-glucuronidase at 65° C. for 2 h, extracted with 860 μL ethyl acetate:isooctane (1:1), and concentrated under nitrogen gas.” left out
Dried samples were reconstituted in 50% methanol and injected into the HPLC. […] Alternatively, dried samples were applied to plastic-backed silica gel plates and separated by thin-layer chromatography (TLC) using a mobile phase of 3:1 chloroform:ethyl acetate, followed by exposure of the plates to a phosphorimager screen and quantitated with a Storm model 860 phosphorimager (Applied Biosystems, Foster City, Calif.). […]
Cell lines, drugs and constructs. […] Cell lines were authenticated by DDC Medical (Fairfield, Ohio) and determined to be mycoplasma free with primers. […]

## C[C@]12CCC(=O)C[C@@H]1CC[C@@H]1[C@@H]2CC[C@]2(C)C(c3cccnc3)=CC[C@@H]12 [Compound 5α-Abi, 17-(3-pyridyl)-5α-androsta-16-ene-3-one]
[1]
  SRD5A inhibition activity relative to D4A: lose SRD5A inhibition activity
[2]
  CYP17A1 inhibition activity relative to Abi and D4A: attenuated

## C[C@]12CCC(=O)C=C1CC[C@@H]1[C@@H]2CC[C@]2(C)C(c3cccnc3)=CC[C@@H]12 [Compound D4A, 17-(3-Pyridyl)androsta-4,16-dien-3-one]
[1]; 10 μM, LAPC4 cells
  block of conversion from AD to 5α-androstanedione and other 5α-reduced androgens: nearly completely blocks
[2]; 1 nM drug, 3 h incubation, vehicle 70.1%
  % conversion to DHEA: 4.2%

## C[C@]12CC[C@@H](O)C[C@@H]1CC[C@@H]1[C@@H]2CC[C@]2(C)C(c3cccnc3)=CC[C@@H]12 [Compound 3α-OH-5α-Abi, 17-(3-pyridyl)-5α-androsta-16-ene-3α-ol]
[1]; LAPC4, [3H]-AD to 5α-dione, 24 hours
  SRD5A inhibition activity relative to D4A: lose SRD5A inhibition activity
[2]
  CYP17A1 inhibition activity relative to Abi and D4A: attenuated
